# In patent US20020028809A1 (SUNTORY LIMITED, priority 1999, published 2002):
# Key:
# [1] = target: T1, human α4β2 subtype of nicotinic acetylcholine receptors (Homo sapiens, UniProt P17787+P43681); assay: Agonist activities at human α4β2 subtype of nicotinic acetylcholine receptors expressed in Xenopus oocytes (membrane potential holding method); assay type: cell-based; conditions: for Emax at 100 µM: read-out: Agonist activity: control % by response at 100 μM of the test compound
# T1 construct: expressed in transfected cells; host or cells: Xenopus laevis oocytes injected with 50 ng each of α4 and β2 cRNA (pSP64 polyA vector)
# Description: Agonist effect in human α4β2 subtype of nicotinic acetylcholine receptors are examined by using human nicotinic acetylcholine receptors prepared in oocytes of Xenopus laevis, which is injected with cRNA from the corresponding cloning cDNA of human α4 and β2 subunits of nicotinic acetylcholine receptors, and to measure the expression of electric response by adding the test compounds to perfusion solution by means of membrane potential holding method.
# Agonist Activities at Human α4β2 Subtype of Nicotinic Acetylcholine Receptors
# (1) Preparation of cRNA of Human α4β2 Subtype of Nicotinic Acetylcholine Receptors
# Obtained hnACh-R α4 cDNA and hnACh-R β2 cDNA were inserted to the cRNA expression vector (pSP64 polyA) having SP6 RNA promoter to construct hnACh-R α4/pSP64 polyA and hnACh-R β2/pSP64 polyA, respectively. After cutting from expression vector by restriction enzyme (EcoRI), transcription was performed by affecting SP6 RNA polymerase in the presence of cap analogues to obtain hnACh-R α4 cRNA and hnACh-R β2 cRNA, respectively.
# (2) Expression of Human α4β2 Subtype Nicotinic Acetylcholine Receptors in Xenopus oocytes
# Oocytes were purchased from Kitanihonseibutsukyohzai Co., Ltd., which were already enucleated from Xenopus laevis, and used in this experiment.
# The oocytes were treated with collagenase (Sigma type I; 1 mg/ml) in calcium-free modified Birth's solution (88 mM of NaCl, 1 mM of KCl, 2.4 mM of NaHCO3, 0.82 mM of MgSO4, 15 mM of HEPES, pH 7.6) under gently stirring at room temperature for 90 minutes, and washed out the enzyme from the tissue. Then, oocytes were separated from ovarian follicle by tweezers, and isolated oocytes were placed in antibiotics containing modified Birth's solution (88 mM of NaCl, 1 mM of KCl, 2.4 mM of NaHCO3, 0.82 mM of MgSO4, 15 mM of HEPES, pH 7.6, and 0.1 v/v% of mixture solution containing of penicillin and streptomycin for incubation; Sigma Co.). […] In oocytes, heterogeneous quintuple [(α4)2(β2)3] was composed by translation of injected cRNAs, and ion channel receptors were constructed on cell membrane.
# (3) Agonist Activities at Human α4β2 Subtype of Nicotinic Acetylcholine Receptors
# Recordings of response at human α4β2 subtype of nicotinic acetylcholine receptors by means of membrane potential holding method were performed as follow. […] Test compounds were added to the perfusion solution, and recorded the peak strength of induced inward current. In order to normalize the response of test compounds, the response with acetylcholine (Ach) were recorded before and after application of the test compounds. Generally in the oocytes just after isolated, the response of intrinsic muscarinic acetylcholine receptors, which is inward electric current caused by activation of calcium dependence chloride ion channels with increase of the intracellular calcium concentration by stimulation of receptors, is observed. […] Therefore, the responses observed in oocytes with injection of hnACh-R α4 cRNA and hnACh-R β2 cRNA, i.e., the inward current induced by the intracellular influx of sodium ion according to the stimulation of receptors, would be the freshly observed responses of human α4β2 subtype nicotinic acetylcholine receptors.
# [2] = target: T2, α1β1γδ subtype of nicotinic acetylcholine receptors (Rattus norvegicus, UniProt P18916+P25108+P25109+P25110); assay: Binding assays at α1β1γδ subtype of nicotinic acetylcholine receptors ([3H]-α-bungarotoxin, rat muscle extract); conditions: for remaining activity at 100 µM / remaining activity at 1000 µM: read-out: control % of [3H]-α-Bgt binding
# T2 construct: Native receptor, no construct: "Triton X100 (2% w/v) was added
# Description: (§1) Methods for evaluating binding capabilities of the compounds at nicotinic acetylcholine receptors are different by subtypes of receptors. Binding capabilities of the compounds at α4β2 nicotinic acetylcholine receptors are examined using rat brain membrane obtained from whole homogenized brain, and determining the inhibiting rate of the compounds against [^3H]-cytisine binding to said brain membrane. Furthermore, the binding capabilities of the compounds at α1β1γδ nicotinic acetylcholine receptors are examined using homogenized rat muscle, and determining the inhibiting rate of the compounds against [^3H]-α-bungarotoxin binding to said muscle homogenate.
# Binding Assays at α1β1γδ Subtype of Nicotinic Acetylcholine Receptors
# Affinity of the compounds of the present invention to α1βγδ subtype of nicotinic acetylcholine receptors was measured by the following method, which was modified method described by Garcha H. S., Thomas P., Spivak C.
# (1) Preparation of Rat Skeletal Muscles Containing α1β1γδ Subtype of Nicotinic Acetylcholine Receptors
# The substantially same animals described in the Biological Experiment 1 were used.
# Isolation of α1β1γδ subtype of nicotinic acetylcholine receptors was performed as follow. That is, rat posterior skeletal muscles were isolated just after sacrificed by decapitation, washed with ice-cooled saline solution and then frozen at −80° C. with liquid nitrogen and stored till using. After thawing the frozen muscles, tissue was homogenized (40% w/v) with buffer solution [2.5 mM of sodium phosphate buffer (pH:7.2), 90 mM of NaCl, 2 mM of KCl, 1 mM of EDTA, 2 mM of benzamidine, 0.1 mM of benzethonium chloride, […], 0.01% of sodium azide] in Waring blender (Waring blender 34BL97; WARING PRODUCTS DIVISION DYNAMICS CORPORATION OF AMERICA) for 60 seconds. The homogenate were centrifuged under 20,000×G for 60 minutes at 4° C. The supernatant was separated and the resulting pellet was added to the same buffer (1.5 ml/g wet weight), and homogenized under the same conditions. Triton X100 (2% w/v) was added and the mixture was stirred for 3 hours at 4° C. The centrifugation at 100,000×G for 60 minutes at 4° C. yielded the rat muscle extract as supernatant. This was stored at 4° C. for up to 4 weeks, and used for binding assays at receptors.
# (2) Experiments of α1β1γδSubtype of Nicotinic Acetylcholine Receptors Binding
# Receptors binding experiments were performed as follow. That is, the extract of rat muscle containing 600-900 μg of protein was added to test tubes containing test compounds and incubated for 15 minutes at 37° C. Then, to this mixture was added 1 nM of [^3H]-α-bungarotoxin (α-Bgt) and further incubated for 2 hours. The samples were isolated by vacuum filtration onto Whatman GF/B filters, which were prerinsed with 0.5% polyethylenimine just prior to sample filtration, using Brandel multi manifold cell harvester. The filters were rapidly rinsed with washing solution (10 mM of KH2PO4, 150 mM of NaCl, pH 7.2, room temperature) (5×1 ml). The filters were counted in 3 ml of clearsol I (Nacalai Tesque Inc.). Determination of nonspecific binding was incubated in the presence of 1 μM α-Bgt.
# In the receptor binding experiments, said buffer solution was added for adjusting the final concentration of BSA to be 0.05%.
# Analyses of the experimental results were conducted by the same way as described in the Biological Experiment 1.
# [3] = target: T3, α4β2 subtype of nicotinic acetylcholine receptors (Rattus norvegicus, UniProt P09483+P12390); assay: Binding assays at α4β2 subtype of nicotinic acetylcholine receptors ([3H]-cytisine, rat brain membrane)
# T3 construct: examined using rat brain membrane obtained from whole homogenized brain; from tissue; host or cells: whole brain of Fischer-344 male rats, membrane pellet
# Description: as §1
# Binding assays at α4β2 Subtype of Nicotinic Acetylcholine Receptors
# (1) Preparation of Rat Brain Membrane Containing α4β2 Subtype of Nicotinic Acetylcholine Receptors
# Rats were housed in the breeding cage controlled of the room temperature at 23±1° C., and the humidity of 55±5% for 1 to 4 weeks. Rats (3 to 4 rats per a cage) were housed with lights on for 12 hours daily (from 7:00 to 19:00), and allowed free access to food and water.
# Preparation of rat brain membrane containing α4β2 subtype of nicotinic acetylcholine receptors was performed as follow. That is, rat brains were isolated just after sacrificed by decapitation, washed with ice-cooled saline solution and then frozen at −80° C. with liquid nitrogen and stored till using. After thawing the frozen brain, the brain was homogenized in 10 volumes of ice-cooled buffer solution (50 mM of Tris-HCl, 120 mM of NaCl, 5 mM of KCl, 1 mM of MgCl2, 2mM of CaCl2; pH 7.4; 4° C.) using homogenizer (HG30, Hitachi Kohki Ltd.) for 30 seconds, and the homogenate were centrifuged under 1,000×G for 10 minutes at 4° C. The resulting supernatant was separated and the pellet was homogenized again with half volume of aforementioned prior buffer solution and centrifuged under the same conditions. Combined supernatant was further centrifuged under 40,000×G for 20 minutes at 4° C. The pellet was suspended in buffer solution and used for binding assays at receptors.
# (2) Experiments of α4β2 Subtype of Nicotinic Acetylcholine Receptors Binding
# Suspensions of membrane pellets containing 400-600 μg of protein were added to test tubes containing test compounds and [^3H]-cytisine (2 nM) in a final volume of 200 μl and incubated for 75 minutes in ice-cooled bath. The samples were isolated by vacuum filtration onto Whatman GF/B filters, which were prerinsed with 0.5% polyethylenimine just prior to sample filtration, using Brandel multi manifold cell harvester. The filters were rapidly washed with buffer solution (3×1 ml). The filters were counted in 3 ml of clearsol I (Nacalai Tesque Inc.).
# Analyses of the experimental results were conducted using the Accufit Competition Program (Beckman Ltd.).
# T2 sequence (P25108 21-457): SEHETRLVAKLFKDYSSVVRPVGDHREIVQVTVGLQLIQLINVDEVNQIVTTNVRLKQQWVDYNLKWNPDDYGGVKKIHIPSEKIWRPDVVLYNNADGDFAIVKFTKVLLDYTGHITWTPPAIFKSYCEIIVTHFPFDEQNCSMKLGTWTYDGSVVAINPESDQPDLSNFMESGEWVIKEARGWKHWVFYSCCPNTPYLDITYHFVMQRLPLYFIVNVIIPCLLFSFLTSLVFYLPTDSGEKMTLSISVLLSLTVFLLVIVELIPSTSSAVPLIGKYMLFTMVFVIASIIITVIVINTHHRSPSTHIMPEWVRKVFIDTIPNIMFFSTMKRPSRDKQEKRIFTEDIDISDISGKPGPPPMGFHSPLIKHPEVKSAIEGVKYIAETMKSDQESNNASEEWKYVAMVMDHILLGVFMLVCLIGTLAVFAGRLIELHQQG
# T2 sequence (P25110 22-517): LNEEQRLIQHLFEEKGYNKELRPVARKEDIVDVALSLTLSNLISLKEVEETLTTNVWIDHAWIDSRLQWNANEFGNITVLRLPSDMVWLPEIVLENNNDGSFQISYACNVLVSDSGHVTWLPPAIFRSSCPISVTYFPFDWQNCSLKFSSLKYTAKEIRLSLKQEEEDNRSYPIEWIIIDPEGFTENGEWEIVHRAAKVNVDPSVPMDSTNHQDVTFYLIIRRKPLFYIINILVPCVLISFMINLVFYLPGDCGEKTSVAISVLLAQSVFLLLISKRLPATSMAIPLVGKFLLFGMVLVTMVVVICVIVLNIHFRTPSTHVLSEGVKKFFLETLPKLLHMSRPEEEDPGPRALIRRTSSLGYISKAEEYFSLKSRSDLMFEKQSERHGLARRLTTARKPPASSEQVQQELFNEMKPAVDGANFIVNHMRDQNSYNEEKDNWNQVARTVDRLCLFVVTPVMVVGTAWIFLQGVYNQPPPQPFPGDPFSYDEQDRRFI
# T2 sequence (P25109 24-501): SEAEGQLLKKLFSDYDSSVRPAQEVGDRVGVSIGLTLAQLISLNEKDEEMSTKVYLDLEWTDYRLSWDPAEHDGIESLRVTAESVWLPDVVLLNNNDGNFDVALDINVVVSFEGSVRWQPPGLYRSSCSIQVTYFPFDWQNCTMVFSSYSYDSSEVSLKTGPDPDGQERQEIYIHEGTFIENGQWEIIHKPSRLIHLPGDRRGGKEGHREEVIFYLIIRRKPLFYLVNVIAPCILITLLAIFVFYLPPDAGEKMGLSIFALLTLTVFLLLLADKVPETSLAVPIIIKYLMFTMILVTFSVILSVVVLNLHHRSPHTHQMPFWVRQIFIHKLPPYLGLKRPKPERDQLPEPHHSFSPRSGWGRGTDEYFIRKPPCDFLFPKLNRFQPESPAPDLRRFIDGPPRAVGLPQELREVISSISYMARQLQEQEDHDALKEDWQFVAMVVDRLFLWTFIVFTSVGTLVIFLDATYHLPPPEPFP
# T1 sequence (P43681 29-627 limits assumed): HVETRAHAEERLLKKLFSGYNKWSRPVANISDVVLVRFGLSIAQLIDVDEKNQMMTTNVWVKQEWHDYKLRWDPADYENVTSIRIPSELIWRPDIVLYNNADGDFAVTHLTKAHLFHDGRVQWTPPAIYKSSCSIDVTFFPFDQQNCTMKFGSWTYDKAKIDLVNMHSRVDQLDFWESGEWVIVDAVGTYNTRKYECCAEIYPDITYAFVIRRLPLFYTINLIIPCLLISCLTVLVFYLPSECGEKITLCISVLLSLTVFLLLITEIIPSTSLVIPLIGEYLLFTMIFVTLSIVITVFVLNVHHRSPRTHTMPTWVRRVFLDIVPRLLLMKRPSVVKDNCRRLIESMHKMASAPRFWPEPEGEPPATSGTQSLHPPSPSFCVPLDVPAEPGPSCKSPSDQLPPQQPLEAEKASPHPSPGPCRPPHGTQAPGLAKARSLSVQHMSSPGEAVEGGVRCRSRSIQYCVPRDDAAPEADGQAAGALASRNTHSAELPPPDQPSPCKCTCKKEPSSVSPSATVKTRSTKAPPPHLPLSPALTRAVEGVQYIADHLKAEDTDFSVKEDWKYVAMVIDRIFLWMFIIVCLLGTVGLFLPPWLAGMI
# T1 sequence (P17787 26-502): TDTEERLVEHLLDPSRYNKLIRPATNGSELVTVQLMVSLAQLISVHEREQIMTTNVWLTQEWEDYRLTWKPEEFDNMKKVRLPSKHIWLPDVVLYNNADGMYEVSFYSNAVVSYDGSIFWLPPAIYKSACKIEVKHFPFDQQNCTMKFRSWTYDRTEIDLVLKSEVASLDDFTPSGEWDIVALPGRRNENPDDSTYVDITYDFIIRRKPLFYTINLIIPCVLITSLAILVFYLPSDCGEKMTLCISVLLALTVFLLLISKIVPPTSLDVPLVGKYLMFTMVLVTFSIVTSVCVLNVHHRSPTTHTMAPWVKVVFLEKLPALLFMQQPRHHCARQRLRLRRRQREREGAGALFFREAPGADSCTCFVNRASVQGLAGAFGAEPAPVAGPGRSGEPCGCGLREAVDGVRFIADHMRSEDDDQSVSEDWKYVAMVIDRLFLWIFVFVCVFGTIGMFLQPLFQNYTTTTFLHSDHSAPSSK
# T3 sequence (P09483 31-630): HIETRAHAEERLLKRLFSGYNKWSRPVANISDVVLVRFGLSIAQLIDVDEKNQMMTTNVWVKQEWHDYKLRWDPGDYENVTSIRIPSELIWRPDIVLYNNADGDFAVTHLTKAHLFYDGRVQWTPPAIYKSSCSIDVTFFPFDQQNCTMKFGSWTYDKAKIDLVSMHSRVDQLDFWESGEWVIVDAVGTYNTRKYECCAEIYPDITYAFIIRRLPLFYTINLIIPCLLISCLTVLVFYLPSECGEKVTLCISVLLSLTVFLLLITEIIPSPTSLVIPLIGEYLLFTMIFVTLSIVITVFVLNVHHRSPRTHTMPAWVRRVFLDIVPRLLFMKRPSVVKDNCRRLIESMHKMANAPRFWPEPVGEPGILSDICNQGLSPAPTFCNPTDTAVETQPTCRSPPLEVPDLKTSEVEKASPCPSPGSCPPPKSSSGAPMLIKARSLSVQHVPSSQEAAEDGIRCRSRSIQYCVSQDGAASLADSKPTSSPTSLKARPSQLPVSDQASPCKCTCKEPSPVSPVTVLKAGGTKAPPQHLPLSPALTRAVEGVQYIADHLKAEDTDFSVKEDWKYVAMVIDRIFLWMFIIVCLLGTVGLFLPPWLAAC
# T3 sequence (P12390 25-500): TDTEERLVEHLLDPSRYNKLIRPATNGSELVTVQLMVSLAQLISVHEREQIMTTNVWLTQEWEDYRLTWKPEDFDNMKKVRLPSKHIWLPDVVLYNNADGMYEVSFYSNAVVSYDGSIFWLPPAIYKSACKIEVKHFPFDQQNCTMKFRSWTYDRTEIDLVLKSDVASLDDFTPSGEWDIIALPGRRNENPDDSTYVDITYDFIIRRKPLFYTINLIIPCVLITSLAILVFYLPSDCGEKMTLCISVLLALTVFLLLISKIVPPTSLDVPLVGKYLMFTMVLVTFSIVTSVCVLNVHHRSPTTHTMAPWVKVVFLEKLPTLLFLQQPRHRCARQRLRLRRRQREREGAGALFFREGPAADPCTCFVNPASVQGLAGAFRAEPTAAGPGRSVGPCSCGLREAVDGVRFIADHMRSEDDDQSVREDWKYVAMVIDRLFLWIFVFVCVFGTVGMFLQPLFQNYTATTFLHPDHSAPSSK
SMILES,Emax at 100 µM [1] [%],Ki [2] [µM],Ki [3] [µM],EC50 [1] [µM],remaining activity at 100 µM [2] [%],remaining activity at 1000 µM [2] [%]
"N=c1sccn1Cc1cccnc1 [Compound 1, 2-imino-3-(3-pyridyl)methyl-2,3-dihydrothiazole]",20,4.9,0.00484,,,
"N=c1ccc(Cl)nn1Cc1ccc(Cl)nc1 [Compound 6, 6-chloro-2-(6-chloro-3-pyridyl)methyl-3-imino-2,3-dihydropyridazine]",,,0.015,86,44,15
"N=C1OCCCN1Cc1ccc(Cl)nc1 [Compound 16, 3-(6-chloro-3-pyridyl)methyl-2-imino-3,4,5,6-tetrahydro-2H-1,3-oxazine]",,,0.00065,1.5,14,-2
"Cc1csc(=N)n1Cc1ccc(Br)nc1 [Compound 19, 3-(6-bromo-3-pyridyl)methyl-2-imino-4-methyl-2,3-dihydrothiazole]",3,11.7,0.0105,,,
"N=C1OCCN1Cc1ccc(Cl)nc1 [Compound 28, 3-(6-chloro-3-pyridyl)methyl-2-iminooxazolidine]",,39.8,0.00277,15.5,,
"NC1=NCCCN1Cc1ccc(Cl)nc1 [Compound 29, 1-(6-Chloro-3-pyridyl)methyl-2-imino-1,2,3,4,5,6-hexahydropyrimidine]",,7.02,0.00025,0.5,,
"Nc1nccn1Cc1cnc(Cl)s1 [Compound 50, 2-amino-1-(2-chloro-5-thiazolyl)methylimidazole]",,818,0.0271,92.4,,
"Cc1ccc(Cn2ccnc2N)cn1 [Compound 56, 2-amino-i-(6-methyl-3-pyridyl)methylimidazole]",11,545,0.165,,,
"N=c1sccn1Cc1ccc(Cl)cc1 [Compound 57, 3-(4-chlorobenzyl)-2-imino-2,3-dihydrothiazole]",23,13,0.0119,,,
"Nc1nccn1Cc1c[nH]c2ncccc12 [Compound 59, 2-amino-i-(7-aza-3-indolyl)methylimidazole]",21,1230,0.0502,,,
"N=c1sccn1Cc1ccc([N+](=O)[O-])cc1 [Compound 62, 2-imino-3-(4-nitrobenzyl)-2,3-dihydrothiazole]",,79.8,0.0291,325,,
